# Tests used:
# Candida albicans [1] = experiment: microbe, parasite or virus in culture; type: functional; settings: CBS 562
# Description: Antifungal activity against Candida albicans CBS 562
# Candida albicans [2] = experiment: microbe, parasite or virus in culture; type: functional
# Description: Antifungal activity against Candida albicans 607
# Candida albicans [3] = experiment: microbe, parasite or virus in culture; type: functional; remark: listed apart in the source
# Description: Antifungal activity against Candida albicans 615
# Aspergillus fumigatus = experiment: microbe, parasite or virus in culture; type: functional; settings: ATCC 64026
# Description: Antifungal activity against Aspergillus fumigatus ATCC 64026
# Nakaseomyces glabratus [4] = experiment: microbe, parasite or virus in culture; type: functional
# Description: Antifungal activity against Candida glabrata 648
# Nakaseomyces glabratus [5] = experiment: microbe, parasite or virus in culture; type: functional; remark: listed apart in the source
# Description: Antifungal activity against Candida glabrata 566
# Pichia kudriavzevii [6] = experiment: microbe, parasite or virus in culture; type: functional
# Description: Antifungal activity against Candida krusei 638
# Pichia kudriavzevii [7] = experiment: microbe, parasite or virus in culture; type: functional; remark: listed apart in the source
# Description: Antifungal activity against Candida krusei 603
# [8] = Toxicity in ICR mouse at 1 to 2 mg/ml, iv after 8 days; settings: in vivo
# Nakaseomyces glabratus [9] = experiment: microbe, parasite or virus in culture; type: functional; remark: listed apart in the source
# Description: Antifungal activity against Candida glabrata 578
# Nakaseomyces glabratus [10] = experiment: microbe, parasite or virus in culture; type: functional; remark: listed apart in the source
# Description: Antifungal activity against Candida glabrata 646
# Nakaseomyces glabratus [11] = experiment: microbe, parasite or virus in culture; type: functional; remark: listed apart in the source
# Description: Antifungal activity against Candida glabrata 572
structure (smiles),measurement,setting,value
CN(C)CCCCCCCCCCN(C)C.N#CBBr.N#CBBr,MIC,Candida albicans [1],140 µM
same,MIC,Candida albicans [2],140 µM
same,MIC,Candida albicans [3],140 µM
BC#N.CN(C)C,MIC,Candida albicans [1],5100 µM
same,MIC,Aspergillus fumigatus,> 5100 µM
same,MIC,Candida albicans [2],> 5100 µM
same,MIC,Candida albicans [3],> 5100 µM
CCCCCCCCCCCN(C)C.N#CB(Br)Br,MIC,Nakaseomyces glabratus [4],20.2 µM
same,MIC,Nakaseomyces glabratus [5],20.2 µM
same,MIC,Pichia kudriavzevii [6],10.1 µM
same,MIC,Candida albicans [1],39 µM
same,MIC,Pichia kudriavzevii [7],10.1 µM
same,MTD at 192 h,[8],73.1 µmol/kg
same,MIC,Aspergillus fumigatus,79 µM
same,MIC,Nakaseomyces glabratus [9],40.4 µM
same,MIC,Candida albicans [2],39 µM
same,MIC,Nakaseomyces glabratus [10],20.2 µM
same,MIC,Nakaseomyces glabratus [11],40.4 µM
same,MIC,Candida albicans [3],39 µM
CN(C)CCCCCCCCCCN(C)C.N#CB(Br)Br.N#CB(Br)Br,MIC,Candida albicans [1],104 µM
same,MIC,Candida albicans [2],104 µM
same,MIC,Candida albicans [3],104 µM
BC(=O)O.BC(=O)O.CN(C)CCCCCCCCCCN(C)C,MIC,Candida albicans [1],188 µM
same,MIC,Candida albicans [2],188 µM
same,MIC,Candida albicans [3],907 µM
CCCCCCCCCCCN(C)C.N#CBF,MIC,Candida albicans [1],64 µM
same,MIC,Aspergillus fumigatus,129 µM
same,MIC,Candida albicans [2],64 µM
same,MIC,Candida albicans [3],64 µM
CCCCCCCCCCCN(C)C.N#CBBr,MIC,Candida albicans [1],49 µM
same,MIC,Aspergillus fumigatus,131 µM
same,MIC,Candida albicans [2],49 µM
same,MIC,Candida albicans [3],49 µM
C[C@@H]1[C@H](O)[C@@H](C)/C=C/C=C/C=C/C=C/C=C/C=C/C=C/[C@H](O[C@@H]2O[C@H](C)[C@@H](O)[C@H](N)[C@@H]2O)C[C@@H]2O[C@](O)(C[C@@H](O)C[C@@H](O)[C@H](O)CC[C@@H](O)C[C@@H](O)CC(=O)O[C@H]1C)C[C@H](O)[C@H]2C(=O)O [AMPHOTERICIN B],MIC,Nakaseomyces glabratus [4],0.82 µM
same,MIC,Nakaseomyces glabratus [5],0.13 µM
same,MIC,Pichia kudriavzevii [6],4.32 µM
same,MIC,Candida albicans [1],0.54 µM
same,MIC,Pichia kudriavzevii [7],4.32 µM
same,MTD at 192 h,[8],2.6 µmol/kg
same,MIC,Aspergillus fumigatus,0.5 µM
same,MIC,Nakaseomyces glabratus [9],2.14 µM
same,MIC,Candida albicans [2],0.27 µM
same,MIC,Nakaseomyces glabratus [10],0.41 µM
same,MIC,Nakaseomyces glabratus [11],1.07 µM
same,MIC,Candida albicans [3],0.27 µM
CN(C)C.N#CB(Br)Br [DIBROMOBORANECARBONITRILE; TRIMETHYLAMINE],MIC,Candida albicans [1],1970 µM
same,MIC,Candida albicans [2],> 1970 µM
same,MIC,Candida albicans [3],> 1970 µM
BC#N.CCCCCCCCCCCCN(C)C [DODECYLDIMETHYLAMINE CYANOBORANE],MIC,Candida albicans [1],61 µM
same,MIC,Candida albicans [2],61 µM
same,MIC,Candida albicans [3],61 µM
OC(Cn1cncn1)(Cn1cncn1)c1ccc(F)cc1F [FLUCONAZOLE],MIC,Pichia kudriavzevii [6],104 µM
same,MIC,Candida albicans [1],1.6 µM
same,MIC,Pichia kudriavzevii [7],104 µM
same,MIC,Aspergillus fumigatus,> 208 µM
same,MIC,Nakaseomyces glabratus [9],> 836 µM
same,MIC,Candida albicans [2],1.6 µM
same,MIC,Nakaseomyces glabratus [10],52.2 µM
same,MIC,Nakaseomyces glabratus [11],> 836 µM
same,MIC,Candida albicans [3],1.6 µM

# From ChEMBL document CHEMBL1146865, “Synthesis and antifungal activity of a novel series of alkyldimethylamine cyanoboranes and their derivatives” (J Med Chem, 2006)
